Assay results as given in US20230192677A1, “CYP11A1 INHIBITORS” (ORION CORPORATION, priority 2020, published 2023).

Molecular target: T1, CYP11A1 (Homo sapiens, UniProt P05108)
T1 construct: human H295R adrenocortical carcinoma cell line was used as source of enzyme; endogenous in cells; host or cells: H295R human adrenocortical carcinoma cells
T1 sequence (P05108 40-521): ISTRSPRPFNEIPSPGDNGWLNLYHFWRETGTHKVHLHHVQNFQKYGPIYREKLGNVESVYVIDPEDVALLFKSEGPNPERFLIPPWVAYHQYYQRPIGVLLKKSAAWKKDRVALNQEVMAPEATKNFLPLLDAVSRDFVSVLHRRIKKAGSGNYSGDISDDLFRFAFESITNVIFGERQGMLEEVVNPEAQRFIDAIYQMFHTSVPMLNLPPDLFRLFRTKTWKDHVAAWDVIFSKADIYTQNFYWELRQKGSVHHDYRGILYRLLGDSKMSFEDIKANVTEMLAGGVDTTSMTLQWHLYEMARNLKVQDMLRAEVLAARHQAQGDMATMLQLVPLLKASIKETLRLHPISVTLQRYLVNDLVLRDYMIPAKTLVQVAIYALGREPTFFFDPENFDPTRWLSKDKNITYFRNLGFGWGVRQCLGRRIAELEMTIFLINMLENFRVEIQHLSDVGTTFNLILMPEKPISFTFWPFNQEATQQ
Assay: CYP11A1 inhibition, isocaproic acid release assay (IARA) in H295R cells
Type: cell-based
Conditions: human H295R adrenocortical carcinoma cell line, three days, 3 nM [24,25-3H]-labelled cholesterol; read-out: IC50 on CYP11A1 inhibition (Group)
Experimental: The ability of the test compounds to inhibit conversion of cholesterol to pregnenolone and isocaproic acid was measured by modification of isocaproic acid release assay (IARA) described by Ruangwises et al. (Biology of Reproduction 1991; 45(1):143-50) except that human H295R adrenocortical carcinoma cell line was used as source of enzyme and extraction was done with dextran-coated charcoal suspension (Isomaa, V. et al., Endocrinology 1982; 111(3):833-843). […] To determine the half maximal inhibitory concentration (IC50) of the test compounds on CYP11A1 inhibition, the cells were treated for three days with increasing concentrations of the test compounds in the presence of 3 nM [24,25-3H]-labelled cholesterol (American Radiolabelled Chemicals). The final DMSO concentration was 1%. Cell culture medium was extracted with dextran-coated charcoal suspension and the radiolabelled isocaproic acid was determined by mixing 100 μl of supernatant fraction in 200 μl of scintillation fluid (OptiPhase SuperMix, Perkin Elmer). Radioactivity was measured using a Microbeta scintillation counter (1450 MicroBeta Trilux, Wallac). All the test compounds were studied at 10 concentrations in duplicates.

Compound | IC50
C/C(=N\O)c1ccc2c(c1)CN(Cc1cc(=O)c(OCC3CCN(S(C)(=O)=O)CC3)co1)C2 [Compound 90, (E)-2-((5-(1-(Hydroxyimino)ethyl)isoindolin-2-yl)methyl)-5-((1-(methylsulfonyl)piperidin-4-yl)methoxy)-4H-pyran-4-one] | 101 to 200 nM
CN(C)C(=O)C1CCC(COc2ccc(CN3Cc4ccccc4C3)cc2S(C)(=O)=O)CC1 (stereo not drawn) [Compound 74, 4-((4-(Isoindolin-2-ylmethyl)-2-(methylsulfonyl)phenoxy)methyl)-N,N-dimethylcyclohexane-1-carboxamide] | < 100 nM
CS(=O)(=O)c1cc(CN2Cc3cccc(F)c3C2)ccc1OCC1CCN(S(C)(=O)=O)CC1 [Compound 105, 4-Fluoro-2-(3-(methylsulfonyl)-4-((1-(methylsulfonyl)piperidin-4-yl)methoxy)-benzyl)isoindoline] | < 100 nM
O=c1cc(CN2CCc3ccccc3C2)occ1OCC1CC2(CCN(c3ncccn3)CC2)C1 [Compound 48, 2-((3,4-Dihydroisoquinolin-2(1H)-yl)methyl)-5-((7-(pyrimidin-2-yl)-7-azaspiro-[3.5]nonan-2-yl)methoxy)-4H-pyran-4-one] | 101 to 200 nM
N#Cc1ccc(N2CC3(CC(COc4coc(CN5CCc6ccccc6C5)cc4=O)C3)C2)nc1 [Compound 51, 6-(6-(((6-((3,4-Dihydroisoquinolin-2(1H)-yl)methyl)-4-oxo-4H-pyran-3-yl)oxy)-methyl)-2-azaspiro[3.3]heptan-2-yl)nicotinonitrile] | 201 to 2000 nM
O=c1cc(CN2CCc3ccccc3C2)occ1OCC1CC2(C1)CN(S(=O)(=O)c1ccc(F)cc1)C2 [Compound 58, 2-((3,4-Dihydroisoquinolin-2(1H)-yl)methyl)-5-((2-((4-fluorophenyl)sulfonyl)-2-azaspiro[3.3]heptan-6-yl)methoxy)-4H-pyran-4-one] | 101 to 200 nM
CS(=O)(=O)c1cc(CN2Cc3ccccc3C2)ccc1OCC1CCN(S(=O)(=O)C2COC2)CC1 [Compound 75, 2-(3-(Methylsulfonyl)-4-((1-(oxetan-3-ylsulfonyl)piperidin-4-yl)methoxy)-benzyl)isoindoline] | < 100 nM
CC(C)C(=O)N1CCC(COc2ccc(CN3Cc4ccccc4C3)cc2S(C)(=O)=O)CC1 [Compound 73, 1-(4-((4-(Isoindolin-2-ylmethyl)-2-(methylsulfonyl)phenoxy)methyl)piperidin-1-yl)-2-methylpropan-1-one] | < 100 nM
CS(=O)(=O)c1cc(CN2Cc3ccc(-c4cnco4)cc3C2)ccc1OCC1CCN(S(C)(=O)=O)CC1 [Compound 13a, 5-(2-(3-(Methylsulfonyl)-4-((1-(methylsulfonyl)piperidin-4-yl)methoxy)-benzyl)isoindolin-5-yl)oxazole] | 101 to 200 nM
CS(=O)(=O)c1cc(CN2Cc3ccccc3C2)ccc1OCc1ccc(S(=O)(=O)N2CC(O)C2)cc1 [Compound 77, 1-((4-((4-(Isoindolin-2-ylmethyl)-2-(methylsulfonyl)phenoxy)methyl)phenyl)-sulfonyl)azetidin-3-ol] | < 100 nM

Now from value to compound:

IC50 | Compound
101 to 200 nM | CS(=O)(=O)c1cc(CN2Cc3ccc(-c4nnco4)cc3C2)ccc1OCC1CCN(S(C)(=O)=O)CC1 [Compound 10, 2-(2-(3-(Methylsulfonyl)-4-((1-(methylsulfonyl)piperidin-4-yl)methoxy)benzyl)-isoindolin-5-yl)-1,3,4-oxadiazole]
< 100 nM | CC(O)c1ccc(COc2ccc(CN3Cc4ccccc4C3)cc2S(C)(=O)=O)cc1 (stereo not drawn) [Compound 92b, 1-(4-((4-(Isoindolin-2-ylmethyl)-2-(methylsulfonyl)phenoxy)methyl)phenyl)-ethanol]
< 100 nM | CS(=O)(=O)c1cc(CN2Cc3ccc(-c4cncs4)cc3C2)ccc1OCC1CCN(S(C)(=O)=O)CC1 [Compound 14, 5-(2-(3-(Methylsulfonyl)-4-((1-(methylsulfonyl)piperidin-4-yl)methoxy)benzyl)-isoindolin-5-yl)thiazole]
< 100 nM | CCS(=O)(=O)c1ccc(COc2ccc(CN3Cc4ccccc4C3)cc2S(C)(=O)=O)cc1 [Compound 76, 2-(4-((4-(Ethylsulfonyl)benzyl)oxy)-3-(methylsulfonyl)benzyl)isoindoline]
< 100 nM | CC(C)(O)c1ccc(COc2ccc(CN3Cc4ccccc4C3)cc2S(C)(=O)=O)cc1 [Compound 86, 2-(4-((4-(Isoindolin-2-ylmethyl)-2-(methylsulfonyl)phenoxy)methyl)phenyl)-propan-2-ol]
101 to 200 nM | CS(=O)(=O)c1ccc(COc2ccc(CN3Cc4ccccc4C3)cc2S(C)(=O)=O)cc1F [Compound 81, 2-(4-((3-Fluoro-4-(methylsulfonyl)benzyl)oxy)-3-(methylsulfonyl)benzyl)-isoindoline]
201 to 2000 nM | CC(=O)N1CCC(COc2ccc(CN3Cc4ccccc4C3)cc2S(C)(=O)=O)CC1 [Compound 87, 1-(4-((4-(Isoindolin-2-ylmethyl)-2-(methylsulfonyl)phenoxy)methyl)piperidin-1-yl)ethan-1-one]
< 100 nM | CCS(=N)(=O)c1ccc(COc2ccc(CN3Cc4ccccc4C3)cc2S(C)(=O)=O)cc1 (stereo not drawn) [Compound 71, Ethyl(imino)(4-((4-(isoindolin-2-ylmethyl)-2-(methylsulfonyl)phenoxy)methyl)-phenyl)-λ^6-sulfanone]
< 100 nM | CS(=N)c1ccc(COc2ccc(CN3Cc4ccccc4C3)cc2S(C)(=O)=O)cc1 (stereo not drawn) [Compound 84, (4-((4-(Isoindolin-2-ylmethyl)-2-(methylsulfonyl)phenoxy)methyl)phenyl)-(methyl)-λ^4-sulfanimine]
201 to 2000 nM | CC(C)(C)OC(=O)N1CCC2(CC1)CC(COc1coc(CN3CCc4ccccc4C3)cc1=O)C2 [Compound 35, tert-Butyl 2-(((6-((3,4-dihydroisoquinolin-2(1H)-yl)methyl)-4-oxo-4H-pyran-3-yl)oxy)methyl)-7-azaspiro[3.5]nonane-7-carboxylate]
< 100 nM | CS(=O)(=O)c1cc(CN2Cc3ccccc3C2)ccc1OCc1ccc([S@@](C)(=N)=O)cc1 [Compound 96, (S)-Imino(4-((4-(isoindolin-2-ylmethyl)-2-(methylsulfonyl)phenoxy)methyl)-phenyl)(methyl)-λ^6-sulfanone]
101 to 200 nM | CS(=O)(=O)N1CCC(COc2coc(CN3Cc4ccc(-c5ccno5)cc4C3)cc2=O)CC1 [Compound 4, 2-((5-(Isoxazol-5-yl)isoindolin-2-yl)methyl)-5-((1-(methylsulfonyl)piperidin-4-yl)methoxy)-4H-pyran-4-one]
< 100 nM | CS(=O)(=O)c1cc(CN2Cc3ccccc3C2)ccc1OCc1ccc(C(=O)N=S(C)(C)=O)cc1 [Compound 78, N-(Dimethyl(oxo)-λ^6-sulfaneylidene)-4-((4-(isoindolin-2-ylmethyl)-2-(methyl-sulfonyl)phenoxy)methyl)benzamide]
101 to 200 nM | CC(C)(O)c1ccc(COc2coc(CN3Cc4ccccc4C4(CCCC4)C3)cc2=O)cc1 [Compound 104, 2-((1′H-Spiro[cyclopentane-1,4′-isoquinolin]-2′(3′H)-yl)methyl)-5-((4-(2-hydroxypropan-2-yl)benzyl)oxy)-4H-pyran-4-one]

Molecular target: recombinant human cytochrome P450 (CYP) CYP3A4 enzyme (Homo sapiens, UniProt P08684)
Sequence (P08684 whole entry): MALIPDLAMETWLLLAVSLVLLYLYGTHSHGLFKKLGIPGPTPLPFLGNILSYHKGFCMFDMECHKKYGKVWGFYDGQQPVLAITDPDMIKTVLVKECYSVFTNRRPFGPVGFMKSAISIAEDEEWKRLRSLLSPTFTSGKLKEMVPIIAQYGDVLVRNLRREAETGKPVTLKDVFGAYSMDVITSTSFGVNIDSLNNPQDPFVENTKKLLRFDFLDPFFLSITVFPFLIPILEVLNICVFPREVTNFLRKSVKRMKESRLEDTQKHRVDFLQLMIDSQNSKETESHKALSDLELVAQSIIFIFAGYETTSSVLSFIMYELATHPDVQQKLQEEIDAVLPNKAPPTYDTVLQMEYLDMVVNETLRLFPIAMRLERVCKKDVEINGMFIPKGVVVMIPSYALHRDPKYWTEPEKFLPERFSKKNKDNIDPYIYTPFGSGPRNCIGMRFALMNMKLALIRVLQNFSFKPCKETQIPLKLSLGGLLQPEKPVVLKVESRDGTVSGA
Assay: Formation of reactive metabolites, trapping with GSH, KCN and SCA
Conditions: test compound 10 μM, recombinant human CYP3A4, NADPH, 1 hour, pH 7.4

Compound | Number of CN trapped metabolites | Number of GSH trapped metabolites | Number of SCA trapped metabolites
C/C(=N\O)c1ccc2c(c1)CN(Cc1cc(=O)c(OCC3CCN(S(C)(=O)=O)CC3)co1)C2 [Compound 90, (E)-2-((5-(1-(Hydroxyimino)ethyl)isoindolin-2-yl)methyl)-5-((1-(methylsulfonyl)piperidin-4-yl)methoxy)-4H-pyran-4-one] | 0 | 0 | 1 (trace)
C[C@H](c1cc(=O)c(OCC2CCN(S(C)(=O)=O)CC2)co1)N1Cc2ccccc2[C@H]2C[C@H]21 (relative stereo) [Compound 24b, 5-((1-(Methylsulfonyl)piperidin-4-yl)methoxy)-2-((R*)-1-((1aR*,7bR*)-1,1a,3,7b-tetrahydro-2H-cyclopropa[c]isoquinolin-2-yl)ethyl)-4H-pyran-4-one] | 2 (trace) | 0 | 0

Other lines, results leading:

Number of CN trapped metabolites | Number of GSH trapped metabolites | Number of SCA trapped metabolites | Compound
1 (trace) | 0 | 2 (trace) | CS(=O)(=O)c1cc(CN2Cc3ccc(-c4nnco4)cc3C2)ccc1OCC1CCN(S(C)(=O)=O)CC1 [Compound 10, 2-(2-(3-(Methylsulfonyl)-4-((1-(methylsulfonyl)piperidin-4-yl)methoxy)benzyl)-isoindolin-5-yl)-1,3,4-oxadiazole]
0 | 0 | 1 (trace) | CC(c1cc(=O)c(OCC2CCN(S(C)(=O)=O)CC2)co1)N1Cc2ccc(-c3ncco3)cc2C1 (stereo not drawn) [Compound 17b, 5-((1-(Methylsulfonyl)piperidin-4-yl)methoxy)-2-(1-(5-(oxazol-2-yl)isoindolin-2-yl)ethyl)-4H-pyran-4-one]
